The test system of one assay is Alternaria solani. The assay is described as follows: Alternaria solani / tomato / leaf disc (early blight). It counts as in vivo. The settings on record: foliar, inoculated 2 days after application, vs untreated control. The procedure:
Example B1: Alternaria solani/Tomato/Leaf Disc (Early Blight) Tomato leaf disks cv. Baby are placed on agar in multiwell plates (24-well format) and sprayed with the formulated test compound diluted in water. The leaf disks are inoculated with a spore suspension of the fungus 2 days after application. The inoculated leaf disks are incubated at 23° C./21° C. (day/night) and 80% relative humidity under a light regime of 12 h/12 h (light/dark) in a climate cabinet and the activity of a compound is assessed as percent disease control compared to untreated when an appropriate level of disease damage appears on untreated check disk leaf disks (5-7 days after application).

Assay [1] relates to Mycosphaerella graminicola. In words: Mycosphaerella graminicola (Septoria tritici) / liquid culture (Septoria blotch). The assay is classed as cell-based. The following applies: Zymoseptoria tritici, 96 h, photometrically 4-5 days after application, read-out: control of Mycosphaerella graminicola. The gist of the method:
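Growth inhibition measured by photometry 4-5 days post application, at 24° C incubation. Test compound supplied as DMSO solution; fungal conidia from cryostorage suspended directly in potato dextrose broth as inoculum.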

For the next assay, the system named is Mycosphaerella arachidis. In words: Mycosphaerella arachidis (Cercospora arachidicola) / liquid culture (early leaf spot). It counts as cell-based. The following applies: 96 h, photometrically 4-5 days after application, read-out: control of Mycosphaerella arachidis. The protocol:
Example B11: Mycosphaerella arachidis (Cercospora arachidicola)/Liquid Culture (Early Leaf Spot) Conidia of the fungus from cryogenic storage are directly mixed into a nutrient broth (potato dextrose broth). After placing a DMSO solution of test compound into a microtiter plate (96-well format), the nutrient broth containing the fungal spores is added. The test plates are incubated at 24° C. and the inhibition of growth is determined photometrically 4-5 days after application.

In another assay the test system is Glomerella lagenarium. The assay is described as follows: Glomerella lagenarium (Colletotrichum lagenarium) / liquid culture (anthracnose). The assay is classed as cell-based. The following applies: Colletotrichum orbiculare, 72 h, photometrically 3-4 days after application, read-out: control of Glomerella lagenarium. The procedure:
Example B5: Glomerella Lagenarium (Colletotrichum Lagenarium)/Liquid Culture (Anthracnose) Conidia of the fungus from cryogenic storage are directly mixed into a nutrient broth (potato dextrose broth). After placing a DMSO solution of test compound into a microtiter plate (96-well format), the nutrient broth containing the fungal spores is added. The test plates are incubated at 24° C. and the inhibition of growth is measured photometrically 3-4 days after application.

The next assay deals with Monographella nivalis. The assay is described as follows: Monographella nivalis (Microdochium nivale) / liquid culture (foot rot cereals). It counts as cell-based. The settings on record: 96 h, photometrically 4-5 days after application, read-out: control of Monographella nivalis. The procedure: Example B10: Monographella nivalis (Microdochium nivale)/Liquid Culture (Foot Rot Cereals) Conidia of the fungus from cryogenic storage are directly mixed into a nutrient broth (potato dextrose broth). After placing a DMSO solution of test compound into a microtiter plate (96-well format), the nutrient broth containing the fungal spores is added. The test plates are incubated at 24° C. and the inhibition of growth is determined photometrically 4-5 days after application.

From patent publication US20250325534A1, “MICROBIOCIDAL TETRAHYDROISOQUINOLINE DERIVATIVES” (SYNGENTA CROP PROTECTION AG, priority 2021, published 2025) come the findings set out here.

A word on the pest or weed control: it is the degree to which the test organism was suppressed or injured, in per cent. The molecule `Cn1cc(C2CN(C(=O)c3cc(-c4cccc(F)c4)on3)Cc3ccccc32)cn1` (centres unmarked) [Compound P-168, [5-(3-fluorophenyl)isoxazol-3-yl]-[4-(1-methylpyrazol-4-yl)-3,4-dihydro-1H-isoquinolin-2-yl]methanone] gave a pest or weed control at 200 ppm in the assay on Alternaria solani of at least 80%. Further, the inhibition of growth at 20 ppm in assay [1] is at least 80%.

In the assay with Alternaria solani, `Cc1c(C2CN(C(=O)c3nnc(-c4ccc(F)cc4F)o3)Cc3ccccc32)cnn1C` (centres unmarked) [Compound P-225] gave a pest or weed control at 200 ppm of at least 80%.

Regarding `Cc1nn(C)c(C)c1C1CN(C(=O)c2cc(-c3ccc(F)cc3F)sn2)Cc2ccccc21` (centres unmarked) [Compound P-115, [5-(2,4-difluorophenyl)isothiazol-3-yl]-[4-(1,3,5-trimethylpyrazol-4-yl)-3,4-dihydro-1H-isoquinolin-2-yl]methanone], the pest or weed control at 200 ppm in the assay with Alternaria solani was at least 80%. The inhibition of growth at 20 ppm in assay [1] is at least 80%.

`Cc1nn(C)c(C)c1C1CN(C(=O)c2cc(-c3ccccc3)on2)Cc2ccccc21` (centres unmarked) [Compound P-148, (5-phenylisoxazol-3-yl)-[4-(1,3,5-trimethylpyrazol-4-yl)-3,4-dihydro-1H-isoquinolin-2-yl]methanone]: the inhibition of growth at 20 ppm (with Mycosphaerella arachidis; in assay [1]) was at least 80% in each case. The same molecule registered a pest or weed control at 200 ppm with Alternaria solani of at least 80%.

On to `Cn1cc(C2CN(C(=O)c3cc(-c4ccccc4)on3)Cc3ccccc32)cn1` (centres unmarked) [Compound P-205, [4-(1-methylpyrazol-4-yl)-3,4-dihydro-1H-isoquinolin-2-yl]-(5-phenylisoxazol-3-yl)methanone], for which the inhibition of growth at 20 ppm (in the assay with Mycosphaerella arachidis; with Glomerella lagenarium; in the assay on Monographella nivalis; in assay [1]) was at least 80% throughout.

In the assay on Alternaria solani, `Cn1cc(C2c3ccccc3CN(C(=O)c3cc(-c4ccc(F)cc4F)on3)C2(C)C)cn1` (centres unmarked) [Compound P-105, [5-(2,4-difluorophenyl)isoxazol-3-yl]-[3,3-dimethyl-4-(1-methylpyrazol-4-yl)-1,4-dihydroisoquinolin-2-yl]methanone] had a pest or weed control at 200 ppm of at least 80%.

Take `CCn1cc(C2CN(C(=O)c3cc(-c4ccc(F)cc4F)on3)Cc3ccccc32)cn1` (centres unmarked) [Compound P-131, [5-(2,4-difluorophenyl)isoxazol-3-yl]-[4-(1-ethylpyrazol-4-yl)-3,4-dihydro-1H-isoquinolin-2-yl]methanone]: in the assay with Alternaria solani, the pest or weed control at 200 ppm was at least 80%. For the same molecule, the inhibition of growth at 20 ppm in assay [1] is at least 80%.

`Cn1cc(C2(C)CN(C(=O)c3nnc(-c4ccc(F)cc4F)s3)Cc3ccccc32)cn1` (centres unmarked) [Compound P-207, [5-(2,4-difluorophenyl)-1,3,4-thiadiazol-2-yl]-[4-methyl-4-(1-methylpyrazol-4-yl)-1,3-dihydroisoquinolin-2-yl]methanone] displayed a pest or weed control at 200 ppm with Alternaria solani of at least 80%.

In the case of `Cn1cc(C2CN(C(=O)c3cc(-c4ccccc4)on3)Cc3ccc(F)cc32)cn1` (centres unmarked) [Compound P-139, [6-fluoro-4-(1-methylpyrazol-4-yl)-3,4-dihydro-1H-isoquinolin-2-yl]-(5-phenylisoxazol-3-yl)methanone], the inhibition of growth at 20 ppm (in the assay with Mycosphaerella arachidis; in the assay on Glomerella lagenarium; in assay [1]) was at least 80% throughout.

As to `COc1ccc2c(c1)CN(C(=O)c1cc(-c3ccccc3)on1)CC2c1cnn(C)c1` (centres unmarked) [Compound P-50, [7-methoxy-4-(1-methylpyrazol-4-yl)-3,4-dihydro-1H-isoquinolin-2-yl]-(5-phenylisoxazol-3-yl)methanone], the inhibition of growth at 20 ppm (with Mycosphaerella arachidis; in the assay on Glomerella lagenarium; in assay [1]) was at least 80% in each case.

Turning to `Cn1cc(C2CN(C(=O)c3noc(-c4ccccc4)n3)Cc3ccccc32)cn1` (centres unmarked) [Compound P-146, [4-(1-methylpyrazol-4-yl)-3,4-dihydro-1H-isoquinolin-2-yl]-(5-phenyl-1,2,4-oxadiazol-3-yl)methanone], the pest or weed control at 200 ppm with Alternaria solani is at least 80%.

In the assay on Alternaria solani, `Cc1nn(C)c(C)c1C1CN(C(=O)c2cc(-c3ccc(F)cc3F)on2)Cc2ncccc21` (centres unmarked) [Compound P-124, [5-(2,4-difluorophenyl)isoxazol-3-yl]-[5-(1,3,5-trimethylpyrazol-4-yl)-6,8-dihydro-5H-1,7-naphthyridin-7-yl]methanone] showed a pest or weed control at 200 ppm of at least 80%.

Take `Cn1ncc(C2CN(C(=O)c3cc(-c4ccc(F)cc4F)on3)Cc3ccccc32)c1Cl` (centres unmarked) [Compound P-38, [4-(5-chloro-1-methyl-pyrazol-4-yl)-3,4-dihydro-1H-isoquinolin-2-yl]-[5-(2,4-difluorophenyl)isoxazol-3-yl]methanone]: in the assay on Alternaria solani, the pest or weed control at 200 ppm is at least 80%.

Take `Cn1ncc(C2CN(C(=O)c3cc(-c4ccc(F)cc4F)on3)Cc3ccccc32)c1F` (centres unmarked) [Compound P-52, [5-(2,4-difluorophenyl)isoxazol-3-yl]-[4-(5-fluoro-1-methyl-pyrazol-4-yl)-3,4-dihydro-1H-isoquinolin-2-yl]methanone]: the pest or weed control at 200 ppm with Alternaria solani is at least 80%.

In the assay with Alternaria solani, `Cc1c(C2CN(C(=O)c3cc(-c4ccc(F)cc4F)on3)Cc3ccccc32)cnn1C` (centres unmarked) [Compound P-140, [5-(2,4-difluorophenyl)isoxazol-3-yl]-[4-(1,5-dimethylpyrazol-4-yl)-3,4-dihydro-1H-isoquinolin-2-yl]methanone] had a pest or weed control at 200 ppm of at least 80%.

In the assay with Alternaria solani, `Cn1cc(C2CN(C(=O)c3nnc(-c4ccccc4)o3)Cc3ccccc32)cn1` (centres unmarked) [Compound P-163, [4-(1-methylpyrazol-4-yl)-3,4-dihydro-1H-isoquinolin-2-yl]-(5-phenyl-1,3,4-oxadiazol-2-yl)methanone] came in with a pest or weed control at 200 ppm of at least 80%.

In the assay on Alternaria solani, `COC(=O)C1c2ccccc2C(c2cnn(C)c2)CN1C(=O)c1cc(-c2ccc(F)cc2F)on1` (centres unmarked) [Compound P-42, methyl 2-[5-(2,4-difluorophenyl)isoxazole-3-carbonyl]-4-(1-methylpyrazol-4-yl)-3,4-dihydro-1H-isoquinoline-1-carboxylate] gave a pest or weed control at 200 ppm of at least 80%.

On to `Cn1cc(C2CN(C(=O)c3nc(-c4ccc(F)cc4F)no3)Cc3ccccc32)cn1` (centres unmarked) [Compound P-127, [3-(2,4-difluorophenyl)-1,2,4-oxadiazol-5-yl]-[4-(1-methylpyrazol-4-yl)-3,4-dihydro-1H-isoquinolin-2-yl]methanone], for which the inhibition of growth at 20 ppm (in the assay on Monographella nivalis; in assay [1]) was at least 80% throughout. This molecule also gave a pest or weed control at 200 ppm in the assay with Alternaria solani of at least 80%.

Take `Cn1cc(C2CN(C(=O)c3nnc(-c4ccc(F)cc4F)o3)Cc3ccccc32)cn1` (centres unmarked) [Compound P-55, [5-(2,4-difluorophenyl)-1,3,4-oxadiazol-2-yl]-[4-(1-methylpyrazol-4-yl)-3,4-dihydro-1H-isoquinolin-2-yl]methanone]: in the assay on Alternaria solani, the pest or weed control at 200 ppm was at least 80%. Moreover, the inhibition of growth at 20 ppm in assay [1] was at least 80%.

On to `Cn1cc([C@]2(C)CN(C(=O)c3nnc(-c4ccc(F)cc4F)s3)Cc3ccccc32)cn1` [Compound P-208, [5-(2,4-difluorophenyl)-1,3,4-thiadiazol-2-yl]-[(4R)-4-methyl-4-(1-methylpyrazol-4-yl)-1,3-dihydroisoquinolin-2-yl]methanone], for which the pest or weed control at 200 ppm in the assay on Alternaria solani was at least 80%.

Regarding `Cn1cc(C2CN(C(=O)c3nnc(-c4ccc(F)cc4)o3)Cc3ccccc32)cn1` (centres unmarked) [Compound P-56, [5-(4-fluorophenyl)-1,3,4-oxadiazol-2-yl]-[4-(1-methylpyrazol-4-yl)-3,4-dihydro-1H-isoquinolin-2-yl]methanone], the pest or weed control at 200 ppm in the assay with Alternaria solani is at least 80%.

Regarding `Cn1cc(C2CN(C(=O)c3cc(-c4ccccc4)on3)Cc3cc(F)ccc32)cn1` (centres unmarked) [Compound P-138, [7-fluoro-4-(1-methylpyrazol-4-yl)-3,4-dihydro-1H-isoquinolin-2-yl]-(5-phenylisoxazol-3-yl)methanone], the inhibition of growth at 20 ppm (in the assay on Mycosphaerella arachidis; in the assay on Glomerella lagenarium; with Monographella nivalis; in assay [1]) was at least 80% in each case.

Turning to `Cc1nn(C)cc1C1CN(C(=O)c2cc(-c3ccc(F)cc3F)on2)Cc2ccccc21` (centres unmarked) [Compound P-121, [5-(2,4-difluorophenyl)isoxazol-3-yl]-[4-(1,3-dimethylpyrazol-4-yl)-3,4-dihydro-1H-isoquinolin-2-yl]methanone], the inhibition of growth at 20 ppm (with Mycosphaerella arachidis; in the assay with Glomerella lagenarium; in the assay on Monographella nivalis; in assay [1]) was at least 80% each time.
